Values after ≈ are worked out from the molar mass of the structure shown.
test system: Escherichia coli (ECOL); experiment: MIC, broth two-fold serial dilution test; assay type: cell-based, gram negative, ATCC 11229; settings: Escherichia coli (G-); M9G (minimal salts media with glucose); read-out: minimum inhibitory concentration (MIC), ECOL
Description: (§1) Biocidal evaluations (bactericidal, algicidal, and fungicidal) were carried out.
(§2) A minimum inhibitory concentration (MIC) value is obtained using a broth, two-fold serial dilution test performed as follows: A stock solution or dispersion of the test compound, typically at a concentration of 1%, is made in a 5:3:2 solvent solution of acetone, methanol, and water. A volume of the stock solution is dispensed into culture media to give an initial starting test concentration of 500 ppm compound.
(§3) When the test is ready to be done, each vessel in the dilution series, except the first vessel, contains an equal volume of compound free broth. The first vessel contains twice the volume of broth with the starting concentration of test compound. One half of the broth from the first vessel is transferred to the second vessel. After being mixed, one half the resulting volume is removed from the second vessel and transferred to the third vessel. The entire cycle is repeated sufficiently to give a series of concentrations amounting to 500, 250, 125, 63, 31, 16, 8, and 4 ppm (or 100, 50, 25, 12.5, 6.2, 3.1, 1.6, and 0.8), respectively.
(§4) Each vessel is then inoculated with a cell suspension of the appropriate test organism. Bacteria are grown in broth, fungi on agar slants for a time and at a temperature appropriate to the species being tested, and algae are a mixture of green algae and blue-green bacteria grown in a nutrient media. At the end of the growth period, in the case of bacteria, the broth is vortexed to disperse the cells.
(§5) The vessels are then incubated at the appropriate temperature. After the incubation, the vessels are examined for growth/no growth. The minimum inhibitory concentration (MIC) is defined as the lowest concentration of compound that results in complete inhibition of growth of the test organism.
Escherichia coli (ECOL), gram negative
(§6) These compounds were tested in M9G
(§7) (minimal salts media with glucose)

Row | Structure (SMILES) | MIC [µg/mL]
1 | O=C(O)CNC(=O)OCC#CI [Compound 1, N-iodopropargyloxycarbonyl glycine] | 250
2 | COC(=O)CNC(=O)OCC#CI [Compound 2, N-iodopropargyloxycarbonyl glycine methyl ester] | 32
3 | CCCCCCCCOC(=O)CNC(=O)OCC#CI [Compound 3, N-Iodopropargyloxycarbonyl glycine n-octyl ester] | > 500
4 | O=C(CNC(=O)OCC#CI)OCC#CI [Compound 4, N-iodopropargyloxycarbonyl glycine iodopropargyl ester] | 125
5 | C[C@H](NC(=O)OCC#CI)C(=O)O [Compound 5, N-iodopropargyloxycarbonyl alanine] | 125
6 | COC(=O)[C@H](C)NC(=O)OCC#CI [Compound 6, N-iodopropargyloxycarbonyl alanine methyl ester] | < 4
7 | CCCCCCCCOC(=O)[C@H](C)NC(=O)OCC#CI [Compound 7, N-iodopropargyloxycarbonyl alanine n-octyl ester] | < 4
8 | O=C(N[C@@H](Cc1ccccc1)C(=O)O)OCC#CI [Compound 8, N-iodopropargyloxycarbonyl phenylalanine] | < 4
9 | COC(=O)[C@H](Cc1ccccc1)NC(=O)OCC#CI [Compound 9, N-iodopropargyloxycarbonyl phenylalanine methyl ester] | > 500
10 | CCCCCCCCOC(=O)[C@H](Cc1ccccc1)NC(=O)OCC#CI [Compound 10, N-iodopropargyloxycarbonyl phenylalanine n-octyl ester] | < 4

test system: Aspergillus niger (ANIG); experiment: MIC, broth two-fold serial dilution test; assay type: cell-based, ATCC 6275; settings: Aspergillus niger (F); M9G (minimal salts media with glucose); read-out: minimum inhibitory concentration (MIC), ANIG
Description: as §1, §2, §3, §4
(§8) In the case of fungi, the spores are harvested by pipetting water onto the slant and dislodging the spores with a sterile loop. The cell/spore suspension is standardized by controlling incubation time, temperature, and the volume of the diluent. The suspension is then used to inoculate the vessels containing the broth compound.
as §5, §6, §7

Row | Structure (SMILES) | MIC [µg/mL]
11 | O=C(O)CNC(=O)OCC#CI [Compound 1, N-iodopropargyloxycarbonyl glycine] | > 500
12 | COC(=O)CNC(=O)OCC#CI [Compound 2, N-iodopropargyloxycarbonyl glycine methyl ester] | < 4
13 | CCCCCCCCOC(=O)CNC(=O)OCC#CI [Compound 3, N-Iodopropargyloxycarbonyl glycine n-octyl ester] | < 4
14 | O=C(CNC(=O)OCC#CI)OCC#CI [Compound 4, N-iodopropargyloxycarbonyl glycine iodopropargyl ester] | < 0.12
15 | C[C@H](NC(=O)OCC#CI)C(=O)O [Compound 5, N-iodopropargyloxycarbonyl alanine] | 125
16 | COC(=O)[C@H](C)NC(=O)OCC#CI [Compound 6, N-iodopropargyloxycarbonyl alanine methyl ester] | < 4
17 | CCCCCCCCOC(=O)[C@H](C)NC(=O)OCC#CI [Compound 7, N-iodopropargyloxycarbonyl alanine n-octyl ester] | < 4
18 | O=C(N[C@@H](Cc1ccccc1)C(=O)O)OCC#CI [Compound 8, N-iodopropargyloxycarbonyl phenylalanine] | 250
19 | COC(=O)[C@H](Cc1ccccc1)NC(=O)OCC#CI [Compound 9, N-iodopropargyloxycarbonyl phenylalanine methyl ester] | < 4
20 | CCCCCCCCOC(=O)[C@H](Cc1ccccc1)NC(=O)OCC#CI [Compound 10, N-iodopropargyloxycarbonyl phenylalanine n-octyl ester] | 125

test system: Pseudomonas fluorescens (PSFL); experiment: MIC, broth two-fold serial dilution test; assay type: cell-based, gram negative, ATCC 948; settings: Pseudomonas fluorescens (G-); M9G (minimal salts media with glucose); read-out: minimum inhibitory concentration (MIC), PSFL
Description: as §1, §2, §3, §4, §5
Pseudomonas fluorescens (PSFL), gram negative
as §6, §7
4. Pseudomonas fluorescens (-)

Row | Structure (SMILES) | MIC [µg/mL]
21 | O=C(O)CNC(=O)OCC#CI [Compound 1, N-iodopropargyloxycarbonyl glycine] | 250
22 | COC(=O)CNC(=O)OCC#CI [Compound 2, N-iodopropargyloxycarbonyl glycine methyl ester] | 16
23 | CCCCCCCCOC(=O)CNC(=O)OCC#CI [Compound 3, N-Iodopropargyloxycarbonyl glycine n-octyl ester] | 8
24 | O=C(CNC(=O)OCC#CI)OCC#CI [Compound 4, N-iodopropargyloxycarbonyl glycine iodopropargyl ester] | 32
25 | C[C@H](NC(=O)OCC#CI)C(=O)O [Compound 5, N-iodopropargyloxycarbonyl alanine] | 125
26 | COC(=O)[C@H](C)NC(=O)OCC#CI [Compound 6, N-iodopropargyloxycarbonyl alanine methyl ester] | < 4
27 | CCCCCCCCOC(=O)[C@H](C)NC(=O)OCC#CI [Compound 7, N-iodopropargyloxycarbonyl alanine n-octyl ester] | 8
28 | O=C(N[C@@H](Cc1ccccc1)C(=O)O)OCC#CI [Compound 8, N-iodopropargyloxycarbonyl phenylalanine] | 63
29 | COC(=O)[C@H](Cc1ccccc1)NC(=O)OCC#CI [Compound 9, N-iodopropargyloxycarbonyl phenylalanine methyl ester] | 125
30 | CCCCCCCCOC(=O)[C@H](Cc1ccccc1)NC(=O)OCC#CI [Compound 10, N-iodopropargyloxycarbonyl phenylalanine n-octyl ester] | 32

test system: Pseudomonas aerugenosa (PSAE); experiment: MIC, broth two-fold serial dilution test; assay type: cell-based, gram negative, ATCC 15442; settings: Pseudomonas aeruginosa (G-); M9G (minimal salts media with glucose); read-out: minimum inhibitory concentration (MIC), PSAE
Description: as §1, §2, §3, §4, §5
Pseudomonas aerugenosa (PSAE), gram negative
as §6, §7
1. Pseudomonas aeruginosa (-)

Row | Structure (SMILES) | MIC [µg/mL]
31 | O=C(O)CNC(=O)OCC#CI [Compound 1, N-iodopropargyloxycarbonyl glycine] | > 500
32 | COC(=O)CNC(=O)OCC#CI [Compound 2, N-iodopropargyloxycarbonyl glycine methyl ester] | 32
33 | CCCCCCCCOC(=O)CNC(=O)OCC#CI [Compound 3, N-Iodopropargyloxycarbonyl glycine n-octyl ester] | > 500
34 | O=C(CNC(=O)OCC#CI)OCC#CI [Compound 4, N-iodopropargyloxycarbonyl glycine iodopropargyl ester] | 125
35 | C[C@H](NC(=O)OCC#CI)C(=O)O [Compound 5, N-iodopropargyloxycarbonyl alanine] | > 500
36 | COC(=O)[C@H](C)NC(=O)OCC#CI [Compound 6, N-iodopropargyloxycarbonyl alanine methyl ester] | 32
37 | CCCCCCCCOC(=O)[C@H](C)NC(=O)OCC#CI [Compound 7, N-iodopropargyloxycarbonyl alanine n-octyl ester] | 125
38 | O=C(N[C@@H](Cc1ccccc1)C(=O)O)OCC#CI [Compound 8, N-iodopropargyloxycarbonyl phenylalanine] | 250
39 | COC(=O)[C@H](Cc1ccccc1)NC(=O)OCC#CI [Compound 9, N-iodopropargyloxycarbonyl phenylalanine methyl ester] | > 500
40 | CCCCCCCCOC(=O)[C@H](Cc1ccccc1)NC(=O)OCC#CI [Compound 10, N-iodopropargyloxycarbonyl phenylalanine n-octyl ester] | 63

test system: Staphylococcus aureus (SAUR); experiment: MIC, broth two-fold serial dilution test; assay type: cell-based, gram positive, ATCC 6538; settings: Staphylococcus aureus (G+); M9G (minimal salts media with glucose); read-out: minimum inhibitory concentration (MIC), SAUR
Description: as §1, §2, §3, §4, §5
Staphylococcus aureus (SAUR), gram positive
as §6, §7
2. Staphylococcus aureus (+)

Row | Structure (SMILES) | MIC [µg/mL]
41 | O=C(O)CNC(=O)OCC#CI [Compound 1, N-iodopropargyloxycarbonyl glycine] | 250
42 | COC(=O)CNC(=O)OCC#CI [Compound 2, N-iodopropargyloxycarbonyl glycine methyl ester] | 16
43 | CCCCCCCCOC(=O)CNC(=O)OCC#CI [Compound 3, N-Iodopropargyloxycarbonyl glycine n-octyl ester] | 8
44 | O=C(CNC(=O)OCC#CI)OCC#CI [Compound 4, N-iodopropargyloxycarbonyl glycine iodopropargyl ester] | 32
45 | C[C@H](NC(=O)OCC#CI)C(=O)O [Compound 5, N-iodopropargyloxycarbonyl alanine] | 250
46 | COC(=O)[C@H](C)NC(=O)OCC#CI [Compound 6, N-iodopropargyloxycarbonyl alanine methyl ester] | 16
47 | CCCCCCCCOC(=O)[C@H](C)NC(=O)OCC#CI [Compound 7, N-iodopropargyloxycarbonyl alanine n-octyl ester] | 63
48 | O=C(N[C@@H](Cc1ccccc1)C(=O)O)OCC#CI [Compound 8, N-iodopropargyloxycarbonyl phenylalanine] | 125
49 | COC(=O)[C@H](Cc1ccccc1)NC(=O)OCC#CI [Compound 9, N-iodopropargyloxycarbonyl phenylalanine methyl ester] | 125
50 | CCCCCCCCOC(=O)[C@H](Cc1ccccc1)NC(=O)OCC#CI [Compound 10, N-iodopropargyloxycarbonyl phenylalanine n-octyl ester] | 32

test system: ALGAE; experiment: MIC, broth two-fold serial dilution test; assay type: cell-based, mixture of green algae and blue-green bacteria; settings: green algae and blue-green bacteria; culture in Allen's medium; read-out: minimum inhibitory concentration (MIC), ALGAE
Description: as §1, §2, §3
Each vessel is then inoculated with a cell suspension of the appropriate test organism. […]

Row | Structure (SMILES) | MIC [µg/mL]
51 | O=C(CNC(=O)OCC#CI)OCC#CI [Compound 4, N-iodopropargyloxycarbonyl glycine iodopropargyl ester] | 12.5 (≈ 28 µM)

test system: Aureobasidium pullulans (APUL); experiment: MIC, broth two-fold serial dilution test; assay type: cell-based, ATCC 9348; settings: Aureobasidium pullulans (F); M9G (minimal salts media with glucose); read-out: minimum inhibitory concentration (MIC), APUL
Description: as §1, §2, §3, §4, §8, §5
Aureobasidium pullulans (APUL)
as §6, §7
6. Aureobasidium pullulans

Row | Structure (SMILES) | MIC [µg/mL]
52 | O=C(O)CNC(=O)OCC#CI [Compound 1, N-iodopropargyloxycarbonyl glycine] | > 500
53 | COC(=O)CNC(=O)OCC#CI [Compound 2, N-iodopropargyloxycarbonyl glycine methyl ester] | < 4
54 | CCCCCCCCOC(=O)CNC(=O)OCC#CI [Compound 3, N-Iodopropargyloxycarbonyl glycine n-octyl ester] | < 4
55 | O=C(CNC(=O)OCC#CI)OCC#CI [Compound 4, N-iodopropargyloxycarbonyl glycine iodopropargyl ester] | < 0.12
56 | C[C@H](NC(=O)OCC#CI)C(=O)O [Compound 5, N-iodopropargyloxycarbonyl alanine] | 32
57 | COC(=O)[C@H](C)NC(=O)OCC#CI [Compound 6, N-iodopropargyloxycarbonyl alanine methyl ester] | < 4
58 | CCCCCCCCOC(=O)[C@H](C)NC(=O)OCC#CI [Compound 7, N-iodopropargyloxycarbonyl alanine n-octyl ester] | < 63
59 | O=C(N[C@@H](Cc1ccccc1)C(=O)O)OCC#CI [Compound 8, N-iodopropargyloxycarbonyl phenylalanine] | 250
60 | COC(=O)[C@H](Cc1ccccc1)NC(=O)OCC#CI [Compound 9, N-iodopropargyloxycarbonyl phenylalanine methyl ester] | < 4
61 | CCCCCCCCOC(=O)[C@H](Cc1ccccc1)NC(=O)OCC#CI [Compound 10, N-iodopropargyloxycarbonyl phenylalanine n-octyl ester] | 125
